Activity calls are given as the source filed them. No cut-off for these calls is given here.
What was measured:
Trachea [1] = assay: Myorelaxant effect in Sprague-Dawley rat tracheal ring assessed as relaxation of carbachol-induced smooth muscle contraction by organ bath assay; format: functional
Trachea [2] = assay: Myorelaxant effect in Sprague-Dawley rat tracheal ring assessed as […] relaxation of carbachol-induced smooth muscle contraction by organ bath assay; format: functional, tissue-based
BXPC-3 = assay: Cytotoxicity against human BXPC-3 assessed as cell viability measured for 72 hrs by cell titer glo luminescent assay; format: functional, cell-based; details: for IC50: BXPC-3, 72 h
MRC5 = assay: Cytotoxicity against human MRC5 assessed as cell viability measured for 72 hrs by cell titer glo luminescent assay; format: cell-based; details: for IC50: Homo sapiens, MRC5, 72 h
ASPC1 = assay: Cytotoxicity against human ASPC1 assessed as cell viability measured for 72 hrs by cell titer glo luminescent assay; format: functional, cell-based; details: for IC50: ASPC1, 72 h
PANC-1 = assay: Cytotoxicity against human PANC-1 assessed as cell viability measured for 72 hrs by cell titer glo luminescent assay; format: functional, cell-based; details: for IC50: PANC-1, 72 h
SW1990 = assay: Cytotoxicity against human SW1990 assessed as cell viability measured for 72 hrs by cell titer glo luminescent assay; format: functional, cell-based; details: for IC50: SW1990, 72 h

Question: `CN1[C@@H]2CC[C@H]1C[C@@H](OC(=O)C(CO)c1ccccc1)C2` (mixture of isomers) [ATROPINE] was tested. Which Emax (Trachea [1]) did it give?
Answer: 112%

Question: And the EC50 (Trachea [2])?
Answer: 0.00098 µM

Question: With `Nc1ccn([C@@H]2O[C@H](CO)[C@@H](O)C2(F)F)c(=O)n1` [GEMCITABINE] as the compound, how does the IC50 (BXPC-3) read?
Answer: 25.9 µM

Question: And the IC50 (MRC5)?
Answer: 35.1 µM

Question: And the IC50 (ASPC1)?
Answer: 29.1 µM

Question: And the IC50 (PANC-1)?
Answer: 30 µM

Question: And the IC50 (SW1990)?
Answer: 25.4 µM

Question: `O=C(/C=C/c1ccccc1)OC1CC2CCC(C1)N2C(CC(=O)OC1CC2CCC(C1)N2)c1ccccc1` (racemic) was tested. Which IC50 (BXPC-3) did it give?
Answer: 4.6 µM

Question: What about the IC50 (MRC5) of the same compound?
Answer: 9.8 µM

Question: What about the Emax (Trachea [1]) of the same compound?
Answer: 71.9%

Question: What about the IC50 (ASPC1) of the same compound?
Answer: 6 µM

Question: What about the IC50 (PANC-1) of the same compound?
Answer: 10.6 µM

Question: What about the EC50 (Trachea [2]) of the same compound?
Answer: 10.4 µM

Question: And the IC50 (SW1990)?
Answer: > 10 µM

Question: Which results are given for `O=C(/C=C/c1ccccc1)OC1CC2CCC(C1)N2[C@@H](CC(=O)OC1CC2CCC(C1)N2)c1ccccc1` (some centres not stated)?
Answer: IC50 (BXPC-3): 5.5 µM; IC50 (MRC5): 8.4 µM; IC50 (ASPC1): 5.8 µM; IC50 (PANC-1): 10.4 µM; IC50 (SW1990): > 10 µM

Question: With `O=C(OC1CC2CCC(C1)N2)c1ccccc1` (configuration not stated) as the compound, how does the Emax (Trachea [1]) read?
Answer: 101%

Question: What about the EC50 (Trachea [2]) of the same compound?
Answer: 7.83 µM

Question: With `O=C(/C=C/c1ccccc1)OC1CC2CCC(C1)N2[C@H](CC(=O)OC1CC2CCC(C1)N2)c1ccccc1` (some centres not stated) as the compound, how does the IC50 (BXPC-3) read?
Answer: 6.6 µM

Question: And the IC50 (MRC5)?
Answer: > 10 µM

Question: And the IC50 (ASPC1)?
Answer: 7.7 µM

Question: What about the IC50 (PANC-1) of the same compound?
Answer: 9.9 µM

Question: And the IC50 (SW1990)?
Answer: > 10 µM

Question: Which Emax (Trachea [1]) does the source give for `O=CN1C2CCC1CC(OC(=O)c1ccccc1)C2` (configuration not stated) here?
Answer: 97%

Question: What about the EC50 (Trachea [2]) of the same compound?
Answer: 3.61 µM

Question: Which results are given for `O=C(/C=C/c1ccccc1)OC1CC2CCC(C1)N2C(CC(=O)OC1CC2CCC(C1)N2C(CC(=O)OC1CC2CCC(C1)N2)c1ccccc1)c1ccccc1` (racemic)?
Answer: IC50 (BXPC-3): 2.2 µM; IC50 (MRC5): 4.2 µM; IC50 (ASPC1): 3.4 µM; IC50 (PANC-1): 1.1 µM; IC50 (SW1990): 5.2 µM

Question: Which Emax (Trachea [1]) does the source give for `O=C(/C=C/c1ccccc1)OC1CC2CCC(C1)N2C(=O)CCc1ccc(O)cc1` (configuration not stated) here?
Answer: 106%

Question: And the EC50 (Trachea [2])?
Answer: 24.2 µM

Question: With `O=C(/C=C/c1ccccc1)OC1CC2CCC(C1)N2` (configuration not stated) as the compound, how does the Activity (BXPC-3) read?
Answer: inactive

Question: What about the Activity (MRC5; human, mrc5, 72 h, time 72 hrs) of the same compound?
Answer: Non-Toxic

Question: And the Emax (Trachea [1])?
Answer: 82.5%

Question: What about the Activity (ASPC1) of the same compound?
Answer: inactive

Question: What about the Activity (PANC-1) of the same compound?
Answer: inactive

Question: What about the EC50 (Trachea [2]) of the same compound?
Answer: 0.44 µM

Question: And the Activity (SW1990)?
Answer: inactive
